Assay results: PMC11187126, “Structure and dynamics of the pyroglutamylated RF-amide peptide QRFP receptor GPR103” (Nature Communications, 2024)
Read-outs that look alike come from different tables or passages of the source. No end group written: not given here.

Target: T1, GPR103 T102^2.61A (Homo sapiens, UniProt Q96P65, T102A)
T1 construct: we used human full-length QRFPR-encoding plasmids; expressed in transfected cells; host or cells: HEK293 cells, pCAGGS vector
T1 sequence (Q96P65 1-431 T102A): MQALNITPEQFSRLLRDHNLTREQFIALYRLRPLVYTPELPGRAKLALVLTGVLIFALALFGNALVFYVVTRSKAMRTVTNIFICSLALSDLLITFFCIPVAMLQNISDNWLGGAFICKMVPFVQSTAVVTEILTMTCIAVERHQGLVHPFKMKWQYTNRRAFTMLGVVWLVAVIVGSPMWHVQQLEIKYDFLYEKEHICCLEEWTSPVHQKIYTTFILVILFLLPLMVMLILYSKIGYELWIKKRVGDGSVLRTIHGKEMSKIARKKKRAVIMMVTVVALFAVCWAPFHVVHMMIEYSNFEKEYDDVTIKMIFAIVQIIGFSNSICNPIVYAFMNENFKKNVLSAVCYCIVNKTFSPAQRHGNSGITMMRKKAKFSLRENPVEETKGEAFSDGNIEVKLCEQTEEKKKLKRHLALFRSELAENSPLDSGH
Test: TGFα shedding assay; Exp. level WT (1:1)
Type: cell-based
Protocol: For the TGFα shedding assay and the flow cytometry analysis, we used human full-length QRFPR-encoding plasmids. Specifically, GPR103 was N-terminally modified with an HA signal sequence followed by a FLAG epitope and then a flexible linker ([…]; the FLAG epitope is underlined) and inserted into the pCAGGS vector. Plasmid encoding GPR103 mutants were generated using Quickchange Site-Directed Mutagensis kit (Agilent).
The TGFα shedding assay was performed as described previously with minor modifications. Plasmid transfection was performed in a 6-well plate with a mixture of 500 ng (per well in a 6-well plate) AP-TGFα-encoding plasmid and 200 ng GPR103-encoding plasmid. After 1-day culture, the transfected cells were harvested by trypsinization, pelleted by centrifugation at 190 × g for 5 min, and washed once with 5 mM HEPES (pH 7.4)-containing Hank’s Balanced Salt Solution (HBSS). After centrifugation, the cells were resuspended in 8 mL of the HEPES-containing HBSS. The cell suspension was seeded in a 96-well culture plate (cell plate) at a volume of 90 μL (per well hereafter) and incubated in a 37 °C incubator with 5% CO2 for 30 min. […] After spinning the cell plates at 190 × g for 2 min, 80 μL of conditioned media was transferred to an empty 96-well plate (conditioned media (CM) plate). Then, 80 μL of AP reaction solution (10 mM p-nitrophenylphosphate (p-NPP), 120 mM Tris-HCl (pH 9.5), 40 mM NaCl, and 10 mM MgCl2) was dispensed into the cell plates and the CM plates. Absorbance at 405 nm of the plates was measured using a microplate reader (SpectraMax 340 PC384, Molecular Devices) before and after 1-h incubation at room temperature. Ligand-induced AP-TGFα release was calculated by subtracting spontaneous AP-TGFα release signal from ligand-induced AP-TGFα release signal. The AP-TGFα release signals were fitted to a four-parameter sigmoidal concentration–response curve, using the Prism 10 software (GraphPad Prism). For each replicate experiment, the pEC50 parameter (negative logarithmic values of EC50 values) of the individual GPR103 mutants were normalized to that of the wild-type GPR103 performed in parallel, and resulting ∆pEC50 values were used to denote ligand response activity of the mutants. […]
Exp. le vel: WT (1:5 0)Exp. le vel: WT (1:5 0)Exp. le vel: WT (1:5 0)Exp. le vel: WT (1:2 0)Exp. le vel: WT (1:2 0)Exp. le vel: WT (1:1 0) […]
L1 4N - t e r mA F2 5N - t e r mA I 2 6N - t e r mA Y 2 9N - t e r mA C 9 82 .5 7A T10 22 .6 1A Exp . l eve l: WT (1 :5)Exp . l evel : >WT (1 :1)Exp. le vel: WT (1:2 0)Exp. le vel: WT (1:2 0)Exp. le vel: WT (1:5 0)Exp . l eve l: WT (1 :1) […]
Exp. le vel: WT (1:1 0)Exp. le vel: WT (1:2 0) C 1 1 83 .2 5AExp. le vel: WT (1:5 0)Exp. le vel: WT (1:5 0)Exp. le vel: WT (1:2 0)Exp . l eve l: WT (1 :5) […]
Exp. le vel: WT (1:5 0)Exp. le vel: WT (1:1 0)Exp. le vel: WT (1:5 0) E203ECL2AExp . l evel : >WT (1 :1)Exp. le vel: WT (1:5 0)Exp. le vel: WT (1:5 0) […]
Exp . l eve l: WT (1 :1) F28Exp. le vel: WT (1:5 0) C 2 8 56 .4 7AExp. le vel: WT (1:2 0) WExp. le vel: WT (1:2 0) F28Exp. le vel: WT (1:5 0)Exp . l evel : >WT (1 :1) […]
Exp. le vel: WT (1:5 0)Exp. le vel: WT (1:5 0) C 3 2 77 .4 8AExp . l eve l: WT (1 :5)Exp . l evel : >WT (1 :1)Exp . l evel : >WT (1 :1) […]
Suppl eme nt ary Figure 1 | Mutational analysis of GPR103. […]
mutants. Data are presented as mean values ± SEM, normally n=3-5; dots), each performed in triplicate. b-d Cell-surface expression (b) and QRFP26-in-duced activation of GPR103 (c, d) were analyzed by the flow cytometry and the TGFα shedding assay, respectively. From the concentration–response curves (a), Emax (c) and ΔpEC50 (d) values relative to the wild type were calculated. Colors in the mutant bars indicate an expression level matching to that of titrated wild type. Statistical analyses were performed using the ordinary one-way ANOVA followed by Dunnett tests with the expression-matched […]

- Emax (Exp. #1): 102.50 % WT
- Emax (Exp. #2): 94.07 % WT
- Emax (Exp. #3): 109.18 % WT
- Emax (mean, read-out: Emax): 102%
- EC50 (n = 3): 20.4 nM
- Emax (n = 3, read-out: Emax): 105 ± 3.6%
Substance: TSGPLGNLAEELNGYSRKKGGFSFRF-NH2 [QRFP26]
